Measurements: patent US20110098323A1, “INHIBITORS OF BACTERIAL BIOFILM FORMATION” (MICROBIOTIX, INC., priority 2009, published 2011)
Read-outs that look alike come from different tables or passages of the source.

How the values were obtained:
S. epidermidis 18972 = experiment: MBIC/MIC secondary assay (crystal violet biofilm staining / OD600 growth); type: cell-based, Staphylococcus epidermidis; settings: for MIC: Staphylococcus epidermidis
Method: (§1) Assays for detecting and measuring bacterial biofilm formation are known in the art. An example of a biofilm formation assay useful in detecting and characterizing biofilm inhibitor compounds is described in Example 1, infra. Briefly, bacterial cells are inoculated into growth medium in individual wells of a 96-well assay plate in the presence or absence of a compound (known biofilm inhibitor or test compound). After incubation for a specified time, growth medium and non-biofilm bacterial cells are removed from each of the wells. The bacterial cells in any biofilms that are adhered to the surface of a well are fixed by addition of ethanol. The ethanol is removed, and the fixed biofilm bacteria cells are stained with crystal violet (CV). The intensity of CV staining is directly correlated with bacterial biofilm formation and is measured in the wells by reading the optical density at 600 nm (OD600). The difference in biofilm formation between untreated control and treated cultures provides an indication of relative biofilm inhibition activity (anti-biofilm activity). Use of different concentrations of an inhibitor in multiple and otherwise duplicate cultures permits determination of a compound's Minimal Biofilm Inhibitory Concentration (MBIC), which is defined herein as the lowest concentration of a compound that inhibits biofilm formation by at least 80% (i.e., ≧80%) compared to untreated control cultures.
(§2) A higher throughput was achieved by formatting the assay for use in flat-bottomed 96-well assay plates (Costar 3590 assay plates, Corning Life Sciences, Lowell, Mass.). The biofilm cultures grew on the bottoms of each well in a surface attached mode. In each assay plate, columns 1 and 12 contained untreated cultures, which served as negative controls (0% biofilm inhibition). Each of the assay wells in columns 2-11 contained a unique small molecule from the Microbiotix Screening Library (MSL) at a final concentration of 100 μM. Assay plates were inoculated with 200 μl/well of a culture of Staphylococcus pidermidis 18972 in 0.5×Tryptic Soy Broth (TSB; Becton Dickinson, Franklin Lakes, N.J.) in which the concentration of glucose was adjusted to 0.25% (w/v). The bacterial inocula were prepared by making a 1:100 dilution of an overnight culture grown in TSB in the media used for the screen. After inoculation, assay plates were sealed with foil tape and incubated at 37° C. for 18-20 hours (h). The optical density at 600 nm (OD600) was measured for each well using a VICTOR2V™ multiplate reader (Perkin Elmer, Waltham, Mass.) in order to quantify overall bacterial growth. The assay plates were processed to remove bacterial growth media and non-biofilm cells from the bottom of each assay well. This was accomplished by using a BioTek ELx405™ plate washer (BioTek Instruments, Inc., Winooski, Vt.). Biofilm bacteria were fixed by addition of 50 μl of 95% ethanol for 30 minutes (min). The ethanol was removed, and the fixed biofilm cultures were stained with 50 μl of 0.06% crystal violet (CV) for 60 min. Excess CV was removed by repeated washes using the BioTek ELx405™ plate washer. The amount of CV bound to each assay well was quantified by measuring OD600 using a VICTOR2V™ plate reader (Perkin Elmer).
(§3) A secondary assay provided a quantitative measure of both anti-biofilm activity and antibacterial activity in terms of the Minimal Biofilm Inhibitory Concentration (MBIC) and the Minimal Inhibitory Concentration (MIC), respectively. The MBIC and MIC are defined as the lowest compound concentrations that inhibit biofilm formation and bacterial growth, respectively, by at least 80% (i.e., ≧80%). The MBIC/MIC assay is formatted in a manner that is similar to the Microbroth dilution assays described by the Clinical and Laboratory Standards Institute (CLSI; formerly NCCLS) in protocol M7-A7. The growth conditions were optimized for biofilm growth in 96-well assay plates such that the resulting CV staining was within the linear range of detection. […]

[1] = test system: S. epidermidis strain 35894; experiment: MBIC/MIC secondary assay; type: cell-based, Staphylococcus epidermidis; settings: for MIC: Staphylococcus epidermidis
Method: as §1, §2, §3

[2] = test system: S. epidermidis strain 1457; experiment: MBIC/MIC secondary assay; type: cell-based, Staphylococcus epidermidis; settings: for MIC: Staphylococcus epidermidis
Method: as §1, §2, §3

[3] = test system: S. epidermidis strain O47; experiment: MBIC/MIC secondary assay; type: cell-based, Staphylococcus epidermidis; settings: for MIC: Staphylococcus epidermidis
Method: as §1, §2, §3

S. aureus ATCC 35556 [4] = experiment: Inhibition of biofilm growth at various stages of biofilm development (time of addition); type: cell-based, Staphylococcus aureus; settings: 22 hours total incubation, CV staining
Method: Compound 4 was added to bacterial cultures at a concentration of 4XMBIC (12 μM) at various times (0, 1, 2, 4, 6, 8, 10, 12, and 21 hours) over a 22 hour incubation period. Biofilm growth was also followed in parallel cultures in the absence of Compound 4 (untreated controls). Biofilm growth was quantified in samples by staining with crystal violet and measuring OD600. […] See, Example 5 for details.
In this experiment, wells of a 96-well assay plate containing growth medium (0.5×TSB, 0.25% (w/v) glucose) were inoculated with S. aureus ATCC 35556 and incubated at 37° C. At selected times (0, 1, 2, 4, 6, 8, 10, 12, 21 hours) during the incubation period, Compound 4 was added to individual wells at a concentration of 4×MBIC. Biofilms were washed and stained with crystal violet (CV) to measure biofilm growth after the entire assay plate (all cultures) had been incubated for a total of 22 hours. Biofilm growth in the absence of Compound 4 was followed in parallel cultures (untreated control cultures). Samples were taken from untreated cultures at the same times as Compound 4 was added to the inhibition cultures to quantify the level of biofilm growth by the CV staining method. […]

S. aureus ATCC 35556 [5] = experiment: Planktonic growth curve assay; type: cell-based, Staphylococcus aureus; settings: aerobic planktonic cultures; concentrations up to 8×MBIC; data not shown
Method: However, the specificity of these compounds for inhibiting biofilm growth was verified using an alternative growth curve assay. Planktonic cultures of S. aureus ATCC 35556 were grown aerobically in the presence of various concentrations of Compound 4 (MBIC=3.125 μM). Bacterial cell growth was monitored over time by measuring OD600.

[6] = S. epidermidis strain 18972, Table 4

MIC (S. epidermidis 18972; S. epidermidis strain 18972, Table 4, read-out: MIC) | MIC ([1]; S. epidermidis strain 35894, read-out: MIC) | MIC ([2]; S. epidermidis strain 1457, read-out: MIC) | MIC ([3]; S. epidermidis strain O47, read-out: MIC) | Compound | MBIC (S. epidermidis 18972; [6]) | MIC (S. epidermidis 18972; 18972) | MBIC ([1]; S. epidermidis strain 35894) | MIC [1]; 35894 | MBIC ([2]; S. epidermidis strain 1457) | MIC [2]; 1457 | MBIC ([3]; S. epidermidis strain O47) | MIC ([3]; O47) | inhibition of biofilm formation, early stages (S. aureus ATCC 35556 [4]; Compound added at 4×MBIC at early stages (up to 2 h)) | inhibition of biofilm formation, maturing biofilms (S. aureus ATCC 35556 [4]; Compound added at 4×MBIC to maturing biofilms (8-16 h)) | effect on planktonic bacterial cell growth (OD600 over time) (S. aureus ATCC 35556 [5])
 |  |  |  | CCOc1cc(/C=C2\SC(=S)N(c3ccc(F)nc3)C2=O)ccc1O [Compound 40, 3-(6-fluoropyridin-3-yl)-5-(3-ethoxy-4-hydroxybenzylidene)-2-thioxothiazolidin-4-one] | 25 µM | ≥ 100 µM | 6.3 µM | ≥ 100 µM | 25 µM | ≥ 100 µM | 6.3 µM | ≥ 100 µM |  |  | 
 |  |  |  | CCOc1cc(/C=C2\SC(=S)N(c3cccnc3)C2=O)ccc1O [Compound 36, 3-(pyridin-3-yl)-5-(3-ethoxy-4-hydroxybenzylidene)-2-thioxothiazolidin-4-one] | 12.5 µM | ≥ 100 µM | 12.5 µM | ≥ 100 µM | 12.5 µM | ≥ 100 µM | 50 µM | ≥ 100 µM |  |  | 
 |  |  |  | CCOc1cc(/C=C2\SC(=S)N(c3ccc(F)cc3)C2=O)ccc1O [Compound 4, 3-(4-fluorophenyl)-5-(3-ethoxy-4-hydroxybenzylidene)-2-thioxothiazolidin-4-one] | 25 µM | ≥ 100 µM | 25 µM | ≥ 100 µM | 50 µM | ≥ 100 µM | 12.5 µM | ≥ 100 µM | inhibited | resistant | did not affect
 |  |  |  | CCOc1cc(/C=C2\SC(=S)N(c3cccc(C#N)c3)C2=O)ccc1O [Compound 34, 3-(3-cyanophenyl)-5-(3-ethoxy-4-hydroxybenzylidene)-2-thioxothiazolidin-4-one] | 25 µM | ≥ 100 µM | 12.5 µM | ≥ 100 µM | ≧100 μM | ≥ 100 µM | 1.6 µM | ≥ 100 µM |  |  | 
 |  |  |  | CCOc1cc(/C=C2\SC(=S)N(c3cccc(F)c3)C2=O)ccc1O [Compound 8, 3-(3-fluorophenyl)-5-(3-ethoxy-4-hydroxybenzylidene)-2-thioxothiazolidin-4-one] | 50 µM | ≥ 100 µM | 25 µM | ≥ 100 µM | 50 µM | ≥ 100 µM | 25 µM | ≥ 100 µM |  |  | 
≥ 100 µM | ≥ 100 µM | ≥ 100 µM | ≥ 100 µM | C=CCOc1cc(/C=C2\SC(=S)N(c3ccc(F)cc3)C2=O)ccc1O [Compound 29, 3-(4-fluorophenyl)-5-(3-allyloxy-4-hydroxybenzylidene)-2-thioxothiazolidin-4-one] | 25 µM |  | 25 µM |  | 25 µM |  | 12.5 µM |  |  |  | 
